Experimental findings from patent publication EP3967319A1, “COMPOSITION FOR SKIN PROTECTION COMPRISING KAEMPFEROL SACCHARIDES COMPOUNDS” (Amorepacific Corporation, priority 2020, dated 2022) are described below.

Test [1] has as its system 3D skin models (skin equivalents). As to the kind of experiment: 3D skin models (skin equivalents) from senescent NHDFs, histology and immunohistochemistry. The class given is cell-based, human. Conditions: BX-795 100 nM, FIGS. 10A-10B. How it is done: 3D skin models (skin equivalents) were prepared from young NHDFs (PDL 12) or senescent NHDFs induced into senescence by doxorubicin and IGF-1 or repeated plating (replicative senescence, PDL 57) and were exposed to DMSO or BX795. The treatment concentrations are as follows: doxorubicin ([…]), IGF-1 (100 ng/mL), BX-795 (100 nM).
The indicated proteins were detected by immunohistochemistry. The results are from three representative experiments. Scale bar = 50 µm.
Paraffin samples were dewaxed in xylene and rehydrated through a descending ethanol to water series (3 minutes per solution). […] The sections were then incubated with water/1% H2O2 for 30 minutes to block endogenous peroxidase, rinsed with water and PBS/0.05% Tween 20 for 5 minutes, and incubated with PBS/10% goat serum (Dako, Glostrup, Denmark) for 20 minutes before exposure to the following antibodies overnight at 4 °C; Primary antibodies are: anti-KRT 10 (Biolegend, San Diego, CA), anti-FLG (Abcam), anti-MMP-1(Abcam) and anti-Ki67 (Abcam). […]
Finally, the sections were dehydrated in graded ethanol, cleared in xylene and mounted in Cytoseal 60 (Thermo Scientific, Waltham, MA). […] Tissue sections were incubated with COL17A1 (Abcam) and laminin-5 (Santa Cruz Biotechnology) in Dako fluorescence mounting medium (Dako) at 4 °C overnight. […]

The subject of test [2] is GRO, GROα, IL-6, IL-8, MCP-1 to 3 and RANTES. As to the kind of experiment: Cytokine antibody array of conditioned media of skin equivalents (SASP). The class given is cell-based, human. As to conditions: skin equivalents from either type of senescent NHDFs, BX-795 100 nM, versus vehicle-treated; FIGS. 11A-11B. How it is done:
PDK1 inhibition inhibits SASP in skin equivalents. 3D skin models (skin equivalents) were prepared from young NHDFs (PDL 12) or senescent NHDFs induced into senescence by doxorubicin and IGF-1 or repeated plating (replicative senescence, PDL 57), and were exposed to DMSO or BX795. The treatment concentrations are as follows: doxorubicin ([…]), IGF-1 (100 ng/mL), BX-795 (100 nM).
Mean ± SD (n = 3), ***P < 0.001 compared to DMSO control senescent cells by one-way analysis of variance.

In test [3] the test system is senescence marker SA-beta-Gal. As to the kind of experiment: Expression of senescence marker SA-beta gal in senescent skin cells (cellular senescence assay kit). The class given is cell-based, human. Conditions: senescent NHDF (passage 37), 3 µM for 7 days; control 78± 5.2. How it is done: Normal human dermal fibroblasts (NHDF; Lonza, Switzerland) were cultured in Dulbecco's modified Eagle's medium (DMEM, GIBCO 1210-0038) containing 10% fetal bovine serum, in a 5% CO2 incubator at 37 °C. Cells at passages 6-9 were denoted as young cells, and they were subcultured by 1:5 subculturing until passage 37 to obtain senescent dermal fibroblasts. The senescent skin cells of (1) were treated with DMSO, the compounds repressed by Chemical Formula 1, 2, 3, 4, 5, 6, 7 and 8, kaempferol 3-O-β-rutinoside (Chemical Formula 9) or kaempferol 7-O-β-D-glucopyranoside (Chemical Formula 10) at 3 µM for 7 days. [drawing 30] [drawing 31] On day 8, the cells were washed with PBS and stained with a fixative and a stain provided together with a cellular senescence assay kit (Cell Biolabs, Inc., San Diego, CA, USA) at 37 °C for 16 hours. On the next day, after washing with PBS and applying a 20% glycerol solution, the number of cells stained green was counted and the degree of expression of the senescence marker SA-beta-Gal was evaluated.

Test [4] relates to Human epidermis models (EpiDerm™ EPI-201). As to the kind of experiment: Improvement of skin barrier in 3D organotypic skin epidermis (immunostaining of barrier markers). Format: cell-based. Conditions: old donor epidermis model, 3 µM for 4 days. How it is done: Human epidermis models (EpiDerm™ EPI-201; […] The human epidermis model derived from the old donor was treated with the kaempferol tetrasaccharide represented by Chemical Formula 1 at 3 µM for 4 days. Paraffin blocks were prepared after fixing with 10% neutral buffered formalin.
After reacting with anti-KRT 10 (Biolegend, San Diego, CA), anti-FLG (Novus Biologicals, Centennial CO, USA), anti-Involucrin and anti-Ki67 (Abcam) antibodies, the expression of the antibodies was analyzed using a microscope. Specifically, the epidermal tissue derived from the young donor (Young) and the epidermal tissue derived from the old donor (Old) were treated with the test substance and then stained with the antibodies described above. The result is shown in FIG. 4, FIGS. 5A-5B and FIGS. 6A-6C. FIGS. 5A-5B and FIGS. 6A-6C show the result of quantifying the result of FIG. 4.

In another test the test system is MMP-1. As to the kind of experiment: MMP-1 ELISA assay in UVB-irradiated HDF cells. The class given is cell-based, human. Conditions: UVB 15 mJ/cm^2, 2 µM or 3 µM, 48 hours, compared to Chemical Formulas 5 and 7 or retinoic acid (RA), FIG. 3. How it is done:
HDF cells were seeded onto a 24-well plate at a concentration of 2.5x10^4 cells/well and were culture for 24 hours under a cell culturing condition. Then, the cells were cultured for 48 hours after treating with a test substance diluted in FBS-free DMEM. After washing with Dulbecco's phosphate-buffered saline (DPBS) and irradiating UVB (15 mJ/cm^2), the medium was replaced with the test substance (2 µM or 3 µM) diluted in DMEM and the cells were cultured for 48 hours. Then, the supernatant was recovered and the amount of MMP-1 was measured using a human total MMP-1 ELISA kit (R&D Systems).

With `O=C(NCCCNc1nc(Nc2cccc(NC(=O)N3CCCC3)c2)ncc1I)c1cccs1` [BX795], in test [1] (skin equivalents from senescence-induced NHDFs), the “epidermal thickness in the skin equivalents” value is given as “preserved epidermal thickness”. The “proliferation marker Ki-67 in the epidermis of the skin equivalents” value in test [1] (skin equivalents from senescent NHDFs) was “markedly increased”. Further, the “GRO, GROα, IL-6, IL-8, MCP-1 to 3 and RANTES in the conditioned medium” value in test [2] is listed as “less”.
As for `C[C@@H]1O[C@@H](OC[C@H]2O[C@@H](Oc3c(-c4ccc(O)cc4)oc4cc(O)cc(O)c4c3=O)[C@H](O[C@@H]3OC[C@@H](O)[C@H](O)[C@H]3O)[C@@H](O)[C@H]2O)[C@H](O)[C@H](O[C@@H]2OC[C@@H](O)[C@H](O)[C@H]2O)[C@H]1O` [Chemical Formula 1, kaempferol-3-O-β-D-xylopyranosyl-(1→3)-O-α-L-rhamnopyranosyl-(1→6)-O-β-D-xylopyranosyl-(1→2)-O-β-D-galactopyranoside], the “degree of expression of the senescence marker SA-beta-Gal (number of cells stained green)” value (“degree” for short) in test [3] is 38 ± 10.4. Besides, the epidermal thickness entry in test [4] (FIG. 5A) was “recovered to levels comparable to those of the young epidermal tissue”. The “expression of the regeneration marker (KI67)” value in test [4] (FIG. 5B) was “recovered to levels comparable to those of the young epidermal tissue”. Besides, the “barrier function (KRT10, FLG, INV)” value in test [4] (FIGS. 6A-6C) is given as “recovered to levels comparable to those of the young epidermal tissue”. Further, the “effect of inhibiting MMP-1 expression” value in the test with MMP-1 is recorded as “superior effect of inhibiting MMP-1 expression”.
In the case of `C[C@@H]1O[C@@H](OC[C@H]2O[C@@H](Oc3c(-c4ccc(O)cc4)oc4cc(O)cc(O)c4c3=O)[C@H](O[C@@H]3OC[C@@H](O)[C@H](O)[C@H]3O)[C@@H](O)[C@@H]2O)[C@H](O)[C@H](O[C@@H]2OC[C@@H](O)[C@H](O)[C@H]2O)[C@H]1O` [Chemical Formula 2, kaempferol-3-O-β-D-xylopyranosyl-(1→3)-O-α-L-rhamnopyranosyl-(1→6)-O-β-D-xylopyranosyl-(1→2)-O-β-D-glucopyranoside], the “degree” value in test [3] came out at 40 ± 10.4.
Regarding `C[C@@H]1O[C@@H](OC[C@H]2O[C@@H](Oc3c(-c4ccc(O)cc4)oc4cc(O)cc(O)c4c3=O)[C@H](O[C@@H]3O[C@H](CO)[C@@H](O)[C@H](O)[C@H]3O)[C@@H](O)[C@H]2O)[C@H](O)[C@H](O[C@@H]2OC[C@@H](O)[C@H](O)[C@H]2O)[C@H]1O` [Chemical Formula 3, kaempferol-3-O-β-D-xylopyranosyl-(1→3)-O-α-L-rhamnopyranosyl-(1→6)-O-β-D-glucopyranosyl-(1→2)-O-β-D-galactopyranoside], the “degree” value in test [3] is on record as 42 ± 9.7. Moreover, the “effect of inhibiting MMP-1 expression” value with MMP-1 is given as “superior effect of inhibiting MMP-1 expression”.
As to `C[C@@H]1O[C@@H](OC[C@H]2O[C@@H](Oc3c(-c4ccc(O)cc4)oc4cc(O)cc(O)c4c3=O)[C@H](O)[C@@H](O)[C@@H]2O)[C@H](O)[C@H](O)[C@H]1O` [Kaempferol 3-O-β-rutinoside, kaempferol 3-O-β-rutinoside, reference compound], in test [3], the “degree” value is 81 ± 11.3.
Still for that read-out and setting: for `O=c1c(O)c(-c2ccc(O)cc2)oc2cc(O[C@@H]3O[C@H](CO)[C@@H](O)[C@H](O)[C@H]3O)cc(O)c12` [Kaempferol 7-0-β-D-glucopyranoside, kaempferol 7-O-β-D-glucopyranoside, reference compound] the value was 79± 9.9; for `O=c1c(O)c(-c2ccc(O)cc2)oc2cc(O)cc(O)c12` [Kaempferol], 80 ± 12.1.
For “kaempferol-3-O-β-D-xylopyranosyl-(1→3)-O-α-L-rhamnopyranosyl-(1→6)-O-β-D-glucopyranosyl-(1→2)-O-β-D-glucopyranoside [Chemical Formula 4]”, in test [3], the “degree” value is on record as 37 ± 9.1. For the same compound, the “effect of inhibiting MMP-1 expression” value in the test with MMP-1 is given as “superior effect of inhibiting MMP-1 expression”.
